# Test results from article PMC2974002 (Journal of medicinal chemistry, 2010).
# Read-outs that look alike come from different tables or passages of the source.
# Experiments:
# [1] = Stability in pH 7.0 phosphate buffer; format: physicochemical; conditions: 72 h
# [2] = system: L1210 murine leukemia cells; format: in vivo, DBA/2J mice; conditions: i.p. on days 1, 5 and 9; for antitumor activity (in words): compared with free drug 11
# [3] = Thiol cleavage of prodrugs with BnSH; format: physicochemical
# [4] = Stability to BnSH without soluble base; format: physicochemical; conditions: for stability to treatment with BnSH: BnSH in THF (72 h, 23 °C) or MeOH (72 h, 23 °C)
# L1210 cells = assay: Cell growth inhibition in a cytotoxic assay with L1210 cells; format: cell-based, murine; conditions: for decrease in cytotoxic potency relative to 5: ratio to 5
# [5] = clean release of 11; cited from earlier work
# DNA = conditions: cell free systems; cited from earlier work
Molecule,cleavage in pH 7.0 phosphate buffer [1],antitumor activity (in words) [2],half-life [3],stability to treatment with BnSH [4],decrease in cytotoxic potency relative to 5 (L1210 cells),half-life in human plasma (t1/2) [5],half-life ([3]; BnSH (100 equiv) and NaHCO3 (100 equiv) in MeOH),DNA alkylation (DNA),cleavage by BnSH ([4]; under all conditions examined),dose of maximal effect ([2]; dose range 10–100 μg/kg),IC50 (L1210 cells),potency of natural (1S)-enantiomer relative to unnatural (1R)-enantiomer (L1210 cells)
"NC(=O)NOc1cc2c(c3ccccc13)C(CCl)CN2C(=O)c1cc2cc(NC(=O)c3cc4ccccc4[nH]3)ccc2[nH]1 (centres unmarked) [compound 3, N-(2-(1-(Chloromethyl)-5-(ureidooxy)-2,3-dihydro-1H-benzo[e]indole-3-carbonyl)-1H-indol-5-yl)-1H-indole-2-carboxamide]",no significant cleavage,"active, albeit only at higher doses",2100 min,stable,ten times,,,,,,,
"COC(=O)NOc1cc2c(c3ccccc13)C(CCl)CN2C(=O)c1cc2cc(NC(=O)c3cc4ccccc4[nH]3)ccc2[nH]1 (centres unmarked) [compound 4, Methyl(3-(5-(1H-indole-2-carboxamido)-1H-indole-2-carbonyl)-1-(chloromethyl)-2,3-dihydro-1H-benzo[e]indol-5-yl)oxycarbamate]",no significant cleavage,"active, albeit only at higher doses",600 min,stable,five times,,,,,,,
"CC(C)(C)OC(=O)NOc1cc2c(c3ccccc13)C(CCl)CN2C(=O)c1cc2cc(NC(=O)c3cc4ccccc4[nH]3)ccc2[nH]1 (centres unmarked) [compound 5, tert-Butyl(3-(5-(1H-indole-2-carboxamido)-1H-indole-2-carbonyl)-1-(chloromethyl)-2,3-dihydro-1H-benzo[e]indol-5-yl)oxycarbamate]",no significant cleavage,matched or exceeded the efficacy of the free drug 11 at each dose,,stable,,3 to 6 h,360 min,incapable of alkylating DNA,,,,
"CC(C)(C)C(=O)NOc1cc2c(c3ccccc13)C(CCl)CN2C(=O)c1cc2cc(NC(=O)c3cc4ccccc4[nH]3)ccc2[nH]1 (centres unmarked) [compound 6, N-(2-(1-(Chloromethyl)-5-(pivalamidooxy)-2,3-dihydro-1H-benzo[e]indole-3-carbonyl)-1H-indol-5-yl)-1H-indole-2-carboxamide]",completely cleaved,,< 30 min,,,,,,rapidly cleaved,,,
"CN(Oc1cc2c(c3ccccc13)C(CCl)CN2C(=O)c1cc2cc(NC(=O)c3cc4ccccc4[nH]3)ccc2[nH]1)C(=O)OC(C)(C)C (centres unmarked) [compound 8, tert-Butyl(3-(5-(1H-indole-2-carboxamido)-1H-indole-2-carbonyl)-1-(chloromethyl)-2,3-dihydro-1H-benzo[e]indol-5-yl)oxy(methyl)carbamate]",no significant cleavage,,2880 min,stable,nine-fold,,,,,,,
"seco-CBI-indole2 [compound 11, reference compound]",,,,,,,,,,60 µg/kg,0.03 nM,ca. 30 fold
